Tests used:
Format in all cases: in vivo, Arabidopsis thaliana
[1] = tested on: Arabidopsis plants; test: Effect of the tryptophan analog 5-methyl tryptophan on growth of transgenic plants; conditions: plants p17, p9 and p5 expressing 35S:PRO-TP-PheA*-3HA; 100 μM, three weeks
Procedure: FIG. 10 illustrates the effect of tryptophan analog on transgenic plants expressing: (i) the 35S:PRO-TP-PheA*-3HA gene (p5, p9; p17); (ii) dominant mutation, resistant to tryptophan analogs due to high levels of tryptophan (5× normal) and anthranilate synthase (2× normal), amt1-1; (iii) control plants expressing an empty Ti vector (con); and (iv) wild type Arabidopsis Colombia ecotype (col). FIG. 10A: Photograph of plants growing for three weeks on zero and 100 μM 5-methyl tryptophan (5MT). FIG. 10B: Quantitative analysis of the number of seedlings whose growth was arrested by 5MT.
To evaluate the biosynthesis level of tryptophan, the effects of tryptophan analog on the transgenic plants of the present invention and on positive-control and control plants were examined. Plants used were as follows: i) plants of the present invention transformed with the 35S:PRO-TP-PheA*-3HA construct; (ii) positive-control transgenic plants having the dominant mutation amt1-1, which are resistant to tryptophan analogs due to high levels of tryptophan (5× normal) and anthranilate synthase (2× normal), the first enzyme of tryptophan biosynthesis; (iii) control plants expressing an empty Ti vector; and (iv) wild type Arabidopsis Colombia ecotype (col). Plants were grown for three weeks on zero and 100 μM 5-methyl tryptophan (5MT).

[2] = tested on: Arabidopsis plants; test: Effect of the HPPD inhibitor Isoxaflutole on growth of control and transgenic Arabidopsis plants; conditions: 10 ppb Isoxaflutole in MS medium
Procedure: Plants were grown on MS medium in the presence of 10 ppb Isoxaflutole. […] FIG. 9A: Chlorophyll content. FIG. 9B: Photograph of the plants.
Western blot analysis was performed with anti-HA tag antibodies, in order to identify the mutated plants which are translated the chemeric gene (Stepansky A and Galili G 2003 Plant Physiol 133, 1407-1415). Additionally, T2 generation plants were examined and lines with a single insertion gene were selected based on 3:1 genetic segregation. For testing the growth of the transgenic plants producing elevated concentrations of the compounds of the invention, homozygous PheA* plants were germinated on regular Nitch medium. The 4-Hydroxy-phenylpyruvate dioxygenase (HPPD) inhibitor Isoxaflutole was used as previously described (Rippert P et al. 2004 Plant Physiol., 134:92-100).
Tyrosine is catabolized in plants to a number of metabolites including hydroxyl-phenylpyruvate (p-HPP), homogentistic acid (HGA) and tocopherols. One of the enzymes in the Tyr catabolism pathways is 4-Hydroxy-phenylpyruvate dioxygenase (HPPD), which catalyzes the conversion of p-HPP to HGA. HGA is derived exclusively from the catabolism of tyrosine and is also a substrate for a number of other metabolites, such as tocopherols. […]

[3] = tested on: Arabidopsis plants; test: Sensitivity of germination to external application of phenylalanine; conditions: PheA* genotypes compared to control genotype; 4 mM phenylalanine in medium
Procedure: FIG. 11A: Morphological phenotype of the control genotype (a, e) and the PheA* expressing genotypes p5 (b, f), p9 (c, g) and p17 (d, h). Plants were at the age of 10 days (a-d) and two months (e-f). FIG. 11B: Seeds of the above control and transgenic plants were germinated on media lacking (left) or containing (right) 4 mM Phe.
Amino acids are generally toxic to plants when added externally at relatively high concentrations. We therefore also used this trait to further confirm that the PheA* plants overproduce phenylalanine, by testing for sensitivity to external application of phenylalanine.

Cc1ccc2[nH]cc(C[C@H](N)C(=O)O)c2c1 [5MT, 5-methyl tryptophan]
growth of plants [1]: strongly inhibited

CS(=O)(=O)c1cc(C(F)(F)F)ccc1C(=O)c1cnoc1C1CC1 [Isoxaflutole]
chlorotic symptoms ([2]; control plants expressing an empty Ti plasmid): developed chlorotic symptoms | chlorotic symptoms ([2]; transgenic plants expressing 35S:PRO-TP-PheA*-3HA): remained green

N[C@@H](Cc1ccccc1)C(=O)O [phenylalanine]
germination [3]: significantly inhibited
